The target of this assay is human DHODH (Homo sapiens, UniProt Q02127). Description: Inhibition of human DHODH activity assay (DCIP chromogen reduction). The following applies: enzyme extracts, 10 min at room temperature, absorbance at 600 nm, duplicate; read-out: hDHODH IC50. The class given is biochemical. As for the experimental part:
DHODH activity and its inhibition were studied using a chromogen reduction assay with DCIP (2,6-dichlorophenol-indophenol).
Enzyme extracts (8 μl, ˜1.5 μg of human protein) were incubated in 96-well plates. The assay mixture (200 μl) contained 200 μM CoQD, 100 μM L-DHO, 120 μM DCIP in the assay buffer (100 mM HEPES pH 8.0, 150 mM NaCl, 10% Glicerol, 0.05% Triton X-100) and 2 μl of test compound. The compounds were dissolved in DMSO at a stock concentration of 1 mM, and tested at different concentrations varying from 10 μM to 1 pM to calculate an IC50 (concentration of inhibitor required for 50% of inhibition).
The reaction was initiated by adding the enzyme and then incubated for 10 min at room temperature before measuring DCIP reduction by counting a decrease in absorbance at 600 nm using standard instrumentation (Spectramax).
All reactions were carried out in duplicate and graphs, determining IC50 values for each compound, were plotted using the ABase software.
Sequence of human DHODH (Q02127 whole entry): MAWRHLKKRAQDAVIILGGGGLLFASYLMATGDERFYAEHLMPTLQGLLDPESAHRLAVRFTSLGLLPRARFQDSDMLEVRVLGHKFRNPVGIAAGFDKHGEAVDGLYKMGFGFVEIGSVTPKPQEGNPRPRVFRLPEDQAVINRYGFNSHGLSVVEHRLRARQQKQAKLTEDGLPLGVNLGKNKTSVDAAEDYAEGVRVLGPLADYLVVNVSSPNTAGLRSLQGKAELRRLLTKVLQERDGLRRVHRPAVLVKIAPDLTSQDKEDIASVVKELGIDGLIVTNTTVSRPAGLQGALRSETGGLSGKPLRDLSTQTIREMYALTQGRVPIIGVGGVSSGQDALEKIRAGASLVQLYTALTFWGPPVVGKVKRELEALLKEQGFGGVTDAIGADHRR
Broadly, the IC50 is the concentration that gives 50% inhibition. As for `O=C(O)c1cc(C2CC2)ccc1Nc1ccc(-c2ccccc2Cl)nc1` [Compound 112, 2-(6-(2-Chlorophenyl)pyridin-3-ylamino)-5-cyclopropylbenzoic acid], the IC50 came to 0.004 µM.
The same measure for `O=C(O)c1cc(C2CC2)ccc1Nc1cnc(-c2ccccc2)nc1` [Compound 1, 5-cyclopropyl-2-(2-phenylpyrimidin-5-ylamino)benzoic acid]: 0.105 µM; for `Cc1ccc(Nc2ccc(-c3ccncc3F)nc2)c(C(=O)O)c1` [Compound 116, 2-(3′-Fluoro-2,4′-bipyridin-5-ylamino)-5-methylbenzoic acid]: 0.09 µM.
On to `Cc1ccc(Nc2ccc(-c3cccc(C(F)(F)F)c3)nc2)c(C(=O)O)c1` [Compound 4, 5-Methyl-2-(6-(3-(trifluoromethyl)phenyl)pyridin-3-ylamino)benzoic acid], for which the IC50 turned out to be 0.098 µM.
The same measure for `Cc1ccc(Nc2ccc(-c3ccc(F)cc3F)nc2)c(C(=O)O)c1` [Compound 141, 2-(6-(2,4-difluorophenyl)pyridin-3-ylamino)-5-methylbenzoic acid]: 0.146 µM; for `COc1ccc(F)c(-c2cc(C)c(Nc3ccc(C)cc3C(=O)O)cn2)c1` [Compound 75, 2-(6-(2-Fluoro-5-methoxyphenyl)-4-methylpyridin-3-ylamino)-5-methylbenzoic acid]: 0.097 µM; for `O=C(O)c1cc(Cl)ccc1Nc1ccc(-c2ccccc2Cl)nc1` [Compound 110, 5-Chloro-2-(6-(2-chlorophenyl)pyridin-3-ylamino)benzoic acid]: 0.145 µM.
The value for `COc1cccc(-c2ncc(Nc3ccc(C)cc3C(=O)O)cc2C(F)(F)F)c1` [Compound 77, 2-(6-(3-Methoxyphenyl)-5-(trifluoromethyl)pyridin-3-ylamino)-5-methylbenzoic acid] was 0.012 µM; that for `COc1cccc(-c2ncc(Nc3ccc(C)cc3C(=O)O)cc2C)c1` [Compound 51, 2-(6-(3-Methoxyphenyl)-5-methylpyridin-3-ylamino)-5-methylbenzoic acid] was 0.021 µM.
With `Cc1ccc(Nc2cnc(-c3cccc(C(=O)NC4CC4)c3)c(C)c2)c(C(=O)O)c1` [Compound 126, 2-(6-(3-(Cyclopropylcarbamoyl)phenyl)-5-methylpyridin-3-ylamino)-5-methylbenzoic acid], the IC50 was 0.012 µM.
The same measure for `O=C(O)c1cc(C2CC2)ccc1Nc1cnc(C2CC2)c(-c2ccccc2)c1` [Compound 25, 5-cyclopropyl-2-(6-cyclopropyl-5-phenylpyridin-3-ylamino)benzoic acid]: 0.028 µM; for `O=C(O)c1cc(C2CC2)ccc1Nc1ccc(-c2ccccc2F)nc1` [Compound 138, 2-(6-(2-fluorophenyl)pyridin-3-ylamino)-5-cyclopropylbenzoic acid]: 0.008 µM.
The same measure for `Cc1ccc(Nc2cnc(-c3ccncc3F)c(C)c2)c(C(=O)O)c1` [Compound 101, 2-(3′-Fluoro-3-methyl-2,4′-bipyridin-5-ylamino)-5-methylbenzoic acid]: 0.037 µM; for `COc1cccc(-c2ncc(Nc3ccc(C4CC4)cc3C(=O)O)cc2C(F)(F)F)c1` [Compound 107, 5-Cyclopropyl-2-(6-(3-methoxyphenyl)-5-(trifluoromethyl)pyridin-3-ylamino)benzoic acid]: 0.007 µM; for `CCOc1cccc(-c2ncc(Nc3ccc(C)cc3C(=O)O)cc2C)c1` [Compound 42, 2-(6-(3-Ethoxyphenyl)-5-methylpyridin-3-ylamino)-5-methylbenzoic acid]: 0.03 µM.
The same measure for `Cc1ccc(Nc2ccc(-c3c(F)ccc(F)c3F)nc2)c(C(=O)O)c1` [Compound 144, 2-(6-(2,3,6-trifluorophenyl)pyridin-3-ylamino)-5-methylbenzoic acid]: 0.077 µM.
Consider `Cc1ccc(Nc2cnc(N3CCCCC3)c(C)c2)c(C(=O)O)c1` [Compound 30, 5-Methyl-2-(5-methyl-6-(piperidin-1-yl)pyridin-3-ylamino)benzoic acid], for which the half-inhibitory concentration (IC50) is 0.041 µM.
The same measure for `Cc1ccc(Nc2cnc(N3CCCCCC3)c(C)c2)c(C(=O)O)c1` [Compound 31, 2-(6-(Azepan-1-yl)-5-methylpyridin-3-ylamino)-5-methylbenzoic acid]: 0.119 µM; for `Cc1ccc(Nc2cnc(-c3cccc(OC(C)C)c3)c(C)c2)c(C(=O)O)c1` [Compound 67, 2-(6-(3-Isopropoxyphenyl)-5-methylpyridin-3-ylamino)-5-methylbenzoic acid]: 0.011 µM; for `O=C(O)c1cc(C2CC2)ccc1Nc1cnc(-c2ccccc2C2CC2)nc1` [Compound 14, 5-Cyclopropyl-2-(2-(2-cyclopropylphenyl)pyrimidin-5-ylamino)benzoic acid]: 0.057 µM.
The same measure for `Cc1cc(Nc2ccc(C3CC3)cc2C(=O)O)cnc1-c1cccc(OC(F)(F)F)c1` [Compound 89, 5-Cyclopropyl-2-(5-methyl-6-(3-(trifluoromethoxy)phenyl)pyridin-3-ylamino)benzoic acid]: 0.005 µM; for `CCOc1cccc(-c2cc(C)c(Nc3ccc(C)cc3C(=O)O)cn2)c1` [Compound 44, 2-(6-(3-Ethoxyphenyl)-4-methylpyridin-3-ylamino)-5-methylbenzoic acid]: 0.078 µM; for `Cc1ccc(Nc2ccc(-c3ccncc3Cl)nc2)c(C(=O)O)c1` [Compound 34, 2-(3′-chloro-2,4′-bipyridin-5-ylamino)-5-methylbenzoic acid]: 0.109 µM.
The same measure for `O=C(O)c1cc(C2CC2)ccc1Nc1cnc(-c2c(F)cc(O)cc2F)nc1` [Compound 6, 5-cyclopropyl-2-(2-(2,6-difluoro-4-hydroxyphenyl)pyrimidin-5-ylamino)benzoic acid]: 0.057 µM; for `Cc1ccc(Nc2cnc(-c3cccc(C(=O)N(C)C)c3)c(C)c2)c(C(=O)O)c1` [Compound 79, 2-(6-(3-(Dimethylcarbamoyl)phenyl)-5-methylpyridin-3-ylamino)-5-methylbenzoic acid]: 0.033 µM.
Consider `O=C(O)c1cc(C2CC2)ccc1Nc1cnc(-c2cc(OC(F)(F)F)ccc2F)nc1` [Compound 135, 2-(2-(2-fluoro-5-trifluoromethoxyphenyl)pyrimidin-5-ylamino)-5-cyclopropylbenzoic acid], for which the concentration for half-maximal inhibition (IC50) was 0.021 µM.
Turning to `O=C(O)c1cc(C2CC2)ccc1Nc1cnc(-c2ccccc2)c(-c2ccccc2)c1` [Compound 19, 5-Cyclopropyl-2-(5,6-diphenylpyridin-3-ylamino)benzoic acid], the 50% inhibitory concentration (IC50) stood at 0.01 µM.
The same measure for `CCOc1cccc(-c2ccc(Nc3ccc(C)cc3C(=O)O)cn2)c1` [Compound 41, 2-(6-(3-Ethoxyphenyl)pyridin-3-ylamino)-5-methylbenzoic acid]: 0.19 µM; for `COc1ccc(F)cc1-c1ncc(Nc2ccc(C)cc2C(=O)O)cc1C` [Compound 148, 2-(6-(5-fluoro-2-methoxyphenyl)-5-methylpyridin-3-ylamino)-5-methylbenzoic acid]: 0.046 µM; for `O=C(O)c1cc(C2CC2)ccc1Nc1cnc(-c2ccccc2C(F)(F)F)nc1` [Compound 128, 2-(2-(2-trifluoromethylphenyl)pyrimidin-5-ylamino)-5-cyclopropylbenzoic acid]: 0.009 µM.
The same measure for `Cc1ccc(Nc2cc(Cl)cnc2-c2ccccc2)c(C(=O)O)c1` [Compound 18, 2-(5-Chloro-2-phenylpyridin-3-ylamino)-5-methylbenzoic acid]: 0.062 µM; for `O=C(O)c1cc(C2CC2)ccc1Nc1cnc(-c2cc(F)ccc2F)nc1` [Compound 131, 2-(2-(2,5-difluorophenyl)pyrimidin-5-ylamino)-5-cyclopropylbenzoic acid]: 0.038 µM; for `COc1cccc(-c2ncc(Nc3ccc(C(F)(F)F)cc3C(=O)O)cc2C)c1` [Compound 50, 2-(6-(3-Methoxyphenyl)-5-methylpyridin-3-ylamino)-5-(trifluoromethyl)benzoic acid]: 0.138 µM.
For `O=C(O)c1cc(C2CC2)ccc1Nc1cncc(-c2ccccc2)c1` [Compound 15, 5-cyclopropyl-2-(5-phenylpyridin-3-ylamino)benzoic acid], the IC50 worked out at 0.113 µM.
For `O=C(O)c1cc(C2CC2)ccc1Nc1cnc(-c2ccccc2)c(C(F)(F)F)c1` [Compound 105, 5-Cyclopropyl-2-(6-phenyl-5-(trifluoromethyl)pyridin-3-ylamino)benzoic acid], the IC50 came out at 0.002 µM.
The value for `Cc1ccccc1-c1ncc(Nc2ccc(C3CC3)cc2C(=O)O)cn1` [Compound 129, 2-(2-o-tolylpyrimidin-5-ylamino)-5-cyclopropylbenzoic acid] was 0.012 µM.
The same measure for `O=C(O)c1cc(C2CC2)ccc1Nc1cnc(-c2cccc(OC3CC3)c2)nc1` [Compound 22, 2-(2-(3-Cyclopropoxyphenyl)pyrimidin-5-ylamino)-5-cyclopropylbenzoic acid]: 0.114 µM; for `COc1ncc(Nc2ccc(C3CC3)cc2C(=O)O)cc1-c1ccccc1` [Compound 7, 5-Cyclopropyl-2-(6-methoxy-5-phenylpyridin-3-ylamino)benzoic acid]: 0.049 µM.
The value for `Cc1ccc(Nc2ccc(-c3ccccc3F)nc2)c(C(=O)O)c1` [Compound 57, 2-(6-(2-Fluorophenyl)pyridin-3-ylamino)-5-methylbenzoic acid] was 0.091 µM; that for `CCOc1ccc(F)c(-c2ccc(Nc3ccc(C)cc3C(=O)O)cn2)c1` [Compound 54, 2-(6-(5-Ethoxy-2-fluorophenyl)pyridin-3-ylamino)-5-methylbenzoic acid] was 0.019 µM.

Values taken from US20110280831A1, “COMBINATIONS COMPRISING METHOTREXATE AND DHODH INHIBITORS” (priority 2009, published 2011).
